Results taken from US11149037B2, “Pyrazole MAGL inhibitors” (H. Lundbeck A/S, priority 2017, dated 2021).

What was measured:
Assay type in all cases: biochemical
[1] = target: FAAH (Homo sapiens (Human), UniProt O00519); experiment: In vitro competitive activity-based protein profiling, human proteomes (prefrontal cortex or PC3 cell membrane fractions); details: human proteome; for inhibition at 1 µM: read-out: FAAH % inh. 1 μM (human)
Procedure, shortened: (§1)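 Activity of MAGL and FAAH was quantified from fluorescent gel band intensities. Beforehand, inhibitors at several concentrations competed against subsequent probe labelling (FP-Rh, JW912 or HT-01) in species-matched proteomes, each step 30 min at 37° C.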

[2] = target: MAGL (Homo sapiens (Human), UniProt Q99685); experiment: as above; details: human proteome; for inhibition at 1 µM: read-out: MAGL % inh. 1 μM (human)
Chain of MAGL (Homo sapiens (Human), UniProt Q99685) (Q99685 whole entry): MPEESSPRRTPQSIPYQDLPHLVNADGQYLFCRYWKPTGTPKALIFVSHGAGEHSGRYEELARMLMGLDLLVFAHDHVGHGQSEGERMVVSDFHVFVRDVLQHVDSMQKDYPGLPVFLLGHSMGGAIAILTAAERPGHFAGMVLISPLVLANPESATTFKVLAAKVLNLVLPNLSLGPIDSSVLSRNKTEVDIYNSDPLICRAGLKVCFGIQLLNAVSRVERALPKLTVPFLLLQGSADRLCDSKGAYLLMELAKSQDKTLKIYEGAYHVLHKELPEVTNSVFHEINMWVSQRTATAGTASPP
Procedure, shortened: as §1

[3] = target: FAAH (Mus musculus (Mouse), UniProt O08914); experiment: In vitro competitive activity-based protein profiling, mouse proteomes (brain membrane fraction or cell lysates); details: mouse proteome, read-out: FAAH % inh. 1 μM (mouse)
Chain of FAAH (Mus musculus (Mouse), UniProt O08914) (O08914 whole entry): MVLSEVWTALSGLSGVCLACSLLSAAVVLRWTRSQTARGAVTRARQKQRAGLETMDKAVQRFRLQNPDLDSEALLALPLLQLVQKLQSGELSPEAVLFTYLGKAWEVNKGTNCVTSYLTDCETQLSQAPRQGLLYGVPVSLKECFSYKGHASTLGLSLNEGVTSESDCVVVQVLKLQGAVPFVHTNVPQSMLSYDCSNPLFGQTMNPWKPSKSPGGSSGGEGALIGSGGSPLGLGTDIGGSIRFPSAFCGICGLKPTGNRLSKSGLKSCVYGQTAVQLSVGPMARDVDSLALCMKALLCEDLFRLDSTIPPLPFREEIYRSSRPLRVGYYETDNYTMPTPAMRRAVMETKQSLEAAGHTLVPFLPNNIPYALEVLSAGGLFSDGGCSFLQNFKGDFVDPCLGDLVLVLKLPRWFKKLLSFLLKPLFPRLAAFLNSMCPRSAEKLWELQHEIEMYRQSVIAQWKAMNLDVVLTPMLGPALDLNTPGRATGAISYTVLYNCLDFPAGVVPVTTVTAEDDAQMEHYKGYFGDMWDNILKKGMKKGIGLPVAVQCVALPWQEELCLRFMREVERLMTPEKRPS
Procedure, shortened: as §1

[4] = target: MAGL (Mus musculus (Mouse), UniProt O35678); experiment: as above; details: mouse proteome, read-out: MAGL % inh. 1 μM (mouse)
Chain of MAGL (Mus musculus (Mouse), UniProt O35678) (O35678 whole entry): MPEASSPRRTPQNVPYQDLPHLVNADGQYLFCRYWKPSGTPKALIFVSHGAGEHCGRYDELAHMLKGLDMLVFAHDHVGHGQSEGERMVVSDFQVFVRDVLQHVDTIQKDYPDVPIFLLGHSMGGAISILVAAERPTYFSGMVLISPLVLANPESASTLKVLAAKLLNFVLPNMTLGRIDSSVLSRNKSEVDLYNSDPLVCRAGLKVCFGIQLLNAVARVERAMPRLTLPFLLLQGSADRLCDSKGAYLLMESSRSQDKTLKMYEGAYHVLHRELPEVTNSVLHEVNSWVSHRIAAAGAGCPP
Procedure, shortened: as §1

Chain of FAAH (Homo sapiens (Human), UniProt O00519) (O00519 whole entry): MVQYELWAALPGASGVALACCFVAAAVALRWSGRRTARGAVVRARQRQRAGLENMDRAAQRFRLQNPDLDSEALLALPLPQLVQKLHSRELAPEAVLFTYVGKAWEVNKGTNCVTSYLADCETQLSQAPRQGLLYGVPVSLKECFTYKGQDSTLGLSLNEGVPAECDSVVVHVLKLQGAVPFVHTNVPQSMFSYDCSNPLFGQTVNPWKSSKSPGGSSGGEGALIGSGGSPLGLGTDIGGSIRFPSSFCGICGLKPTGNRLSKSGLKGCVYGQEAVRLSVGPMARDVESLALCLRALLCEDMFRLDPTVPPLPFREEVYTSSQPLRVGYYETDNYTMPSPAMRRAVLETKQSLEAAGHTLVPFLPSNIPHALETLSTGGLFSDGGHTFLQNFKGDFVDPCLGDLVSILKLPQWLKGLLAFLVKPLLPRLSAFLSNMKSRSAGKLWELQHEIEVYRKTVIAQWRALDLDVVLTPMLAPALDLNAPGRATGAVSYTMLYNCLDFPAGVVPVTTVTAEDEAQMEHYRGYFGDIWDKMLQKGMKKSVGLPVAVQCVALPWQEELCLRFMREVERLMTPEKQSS

| SMILES | inhibition at 1 µM [1] | inhibition at 1 µM [2] | inhibition at 1 µM [3] | inhibition at 1 µM [4] | IC50 [1] | IC50 [2] | inhibition at 10 µM ([2]; 10 μM, read-out: MAGL % inh. (human) @ 10 μM) |
| --- | --- | --- | --- | --- | --- | --- | --- |
| CN(Cc1ccc(N2CCCC2)cc1C(F)(F)F)[C@H]1C[C@@H]2CN(C(=O)n3ccc(NS(C)(=O)=O)n3)C[C@@H]2C1 [Example 50, N-(1-((3aR,5r,6aS)-5-(Methyl(4-(pyrrolidin-1-yl)-2-(trifluoromethyl)benzyl)amino)octahydrocyclopenta[c]pyrrole-2-carbonyl)-1H-pyrazol-3-yl)methanesulfonamide] | 0 to 25% | 50 to 75% | > 75% | 50 to 75% |  |  |  |
| CC(=O)Nc1ccn(C(=O)N2CC3CN(Cc4cc(N5CCOCC5)cc(C(F)(F)F)c4)CC3C2)n1 (stereo not drawn) [Example 166, N-(1-(5-(3-Morpholino-5-(trifluoromethyl)benzyl)octahydropyrrolo[3,4-c]pyrrole-2-carbonyl)-1H-pyrazol-3-yl)acetamide] | 0 to 25% | > 75% | > 75% | > 75% |  |  |  |
| CS(=O)(=O)Nc1ccn(C(=O)N2CCN(Cc3sc4ccccc4c3Cl)CC2)n1 [Example 70, N-(1-(4-((3-Chlorobenzo[b]thiophen-2-yl)methyl)piperazine-1-carbonyl)-1H-pyrazol-3-yl)methanesulfonamide] | 0 to 25% | > 75% | 0 to 25% | > 75% |  |  |  |
| CC(=O)Nc1ccn(C(=O)N2CCC3(CCCN3Cc3ccc(Cl)cc3OCCCC(=O)O)CC2)n1 [Example 105, 4-(2-((8-(3-Acetamido-1H-pyrazole-1-carbonyl)-1,8-diazaspiro[4.5]decan-1-yl)methyl)-5-chlorophenoxy)butanoic acid] | 0 to 25% | > 75% | 0 to 25% | > 75% |  |  |  |
| CS(=O)(=O)Nc1ccn(C(=O)N2CCC3(CCN(Cc4cccc(Cl)c4)C3)CC2)n1 [Example 163, N-(1-(2-(3-Chlorobenzyl)-2,8-diazaspiro[4.5]decane-8-carbonyl)-1H-pyrazol-3-yl)methanesulfonamide] | 0 to 25% | > 75% | 0 to 25% | 0 to 25% |  |  |  |
| CS(=O)(=O)Nc1ccn(C(=O)N2CCC(Oc3ccc(Cl)c(C4CCCC4)c3)CC2)n1 [Example 21, N-(1-(4-(4-chloro-3-cyclopentylphenoxy)piperidine-1-carbonyl)-1H-pyrazol-3-yl)methanesulfonamide] | 0 to 25% | > 75% | 0 to 25% | > 75% |  |  |  |
| CS(=O)(=O)Nc1ccn(C(=O)N2CCC(Oc3ccc(C(F)(F)F)cc3N3CCCC3=O)CC2)n1 [Example 100, N-(1-(4-(2-(2-Oxopyrrolidin-1-yl)-4-(trifluoromethyl)phenoxy)piperidine-1-carbonyl)-1H-pyrazol-3-yl)methanesulfonamide] | 0 to 25% | 50 to 75% | 0 to 25% | 50 to 75% |  |  |  |
| CS(=O)(=O)Nc1ccn(C(=O)N2CCN(Cc3cc4ccccc4[nH]3)CC2)n1 [Example 55, N-(1-(4-((1H-Indol-2-yl)methyl)piperazine-1-carbonyl)-1H-pyrazol-3-yl)methanesulfonamide] | 0 to 25% | > 75% | 0 to 25% | > 75% |  |  |  |
| CC(=O)Nc1ccn(C(=O)N2CCC3(CCCN3Cc3cc4cc(C(=O)O)ccc4[nH]3)CC2)n1 [Example 49, 2-((8-(3-Acetamido-1H-pyrazole-1-carbonyl)-1,8-diazaspiro[4.5]decan-1-yl)methyl)-1H-indole-5-carboxylic acid] | 0 to 25% | 25 to 50% | 0 to 25% | 50 to 75% |  |  |  |
| CC(=O)Nc1ccn(C(=O)N2CCN(Cc3ccc(C(N)=O)c(C(F)(F)F)c3)CC2)n1 [Example 123, 4-((4-(3-Acetamido-1H-pyrazole-1-carbonyl)piperazin-1-yl)methyl)-2-(trifluoromethyl)benzamide] | 0 to 25% | > 75% | 0 to 25% | > 75% |  |  |  |
| CS(=O)(=O)Nc1ccn(C(=O)N2C[C@H]3C[C@H](OCc4cccc(C(F)(F)F)c4)C[C@H]3C2)n1 [Example 28, N-(1-((3aR,5s,6aS)-5-((3-(trifluoromethyl)benzyl)oxy)octahydrocyclopenta[c]pyrrole-2-carbonyl)-1H-pyrazol-3-yl)methanesulfonamide] | > 75% | > 75% | > 75% | > 75% |  |  |  |
| CS(=O)(=O)Nc1ccn(C(=O)N2CCC(Oc3ccc(C(F)(F)F)nc3N3CCCC3)CC2)n1 [Example 95, N-(1-(4-((2-(Pyrrolidin-1-yl)-6-(trifluoromethyl)pyridin-3-yl)oxy)piperidine-1-carbonyl)-1H-pyrazol-3-yl)methanesulfonamide] | 0 to 25% | > 75% | 0 to 25% | > 75% |  |  |  |
| CS(=O)(=O)Nc1ccn(C(=O)N2CCC(Oc3ccc(Cl)c(OC4CCCC4)c3)CC2)n1 [Example 6, N-(1-(4-(4-chloro-3-(cyclopentyloxy)phenoxy)piperidine-1-carbonyl)-1H-pyrazol-3-yl)methanesulfonamide] | 0 to 25% | > 75% | 0 to 25% | > 75% |  |  |  |
| CN(Cc1cc(Cl)ccc1C(F)(F)F)[C@H]1C[C@@H]2CN(C(=O)n3ccc(NS(C)(=O)=O)n3)C[C@@H]2C1 [Example 51, N-(1-((3aR,5r,6aS)-5-((5-Chloro-2-(trifluoromethyl)benzyl)(methyl)amino)octahydrocyclopenta[c]pyrrole-2-carbonyl)-1H-pyrazol-3-yl)methanesulfonamide] | > 75% | > 75% | > 75% | > 75% | 0.1 to 1 µM | < 0.1 µM |  |
| CS(=O)(=O)Nc1ccn(C(=O)N2CCN(Cc3cc4c(Cl)cccc4s3)CC2)n1 [Example 67, N-(1-(4-((4-Chlorobenzo[b]thiophen-2-yl)methyl)piperazine-1-carbonyl)-1H-pyrazol-3-yl)methanesulfonamide] | 25 to 50% | > 75% | 25 to 50% | > 75% |  |  |  |
| CC(=O)Nc1ccn(C(=O)N2CC3CN(Cc4cc(Cl)cc(C(F)(F)F)c4)CC3C2)n1 (stereo not drawn) [Example 146, N-(1-(5-(3-Chloro-5-(trifluoromethyl)benzyl)octahydropyrrolo[3,4-c]pyrrole-2-carbonyl)-1H-pyrazol-3-yl)acetamide] | > 75% | > 75% | > 75% | > 75% | 1 to 10 µM | < 0.1 µM |  |
| CS(=O)(=O)Nc1ccn(C(=O)N2CCC(N(Cc3ccc(C(F)(F)F)cc3N3CCCC3)C3CC3)CC2)n1 [Example 35, N-(1-(4-(cyclopropyl(2-(pyrrolidin-1-yl)-4-(trifluoromethyl)benzyl)amino)piperidine-1-carbonyl)-1H-pyrazol-3-yl)methanesulfonamide] | 0 to 25% | > 75% | 0 to 25% | > 75% |  |  |  |
| CC(=O)Nc1ccn(C(=O)N2CCC3(CCCN3C(=O)c3cc4ccc(C(F)(F)F)cc4s3)CC2)n1 [Example 155, N-(1-(1-(6-(Trifluoromethyl)benzo[b]thiophene-2-carbonyl)-1,8-diazaspiro[4.5]decane-8-carbonyl)-1H-pyrazol-3-yl)acetamide] | 0 to 25% | > 75% | > 75% | > 75% |  |  |  |
| CS(=O)(=O)Nc1ccn(C(=O)N2CCC3(CCN(Cc4cc(N5CCOCC5)cc(C(F)(F)F)c4)C3)CC2)n1 [Example 59, N-(1-(2-(3-Morpholino-5-(trifluoromethyl)benzyl)-2,8-diazaspiro[4.5]decane-8-carbonyl)-1H-pyrazol-3-yl)methanesulfonamide] | 0 to 25% | > 75% | 0 to 25% | > 75% |  |  |  |
| CC(=O)Nc1ccn(C(=O)N2CCC3(CCCN3Cc3cc4cc(Cl)cc(Cl)c4[nH]3)CC2)n1 [Example 13, N-(1-(1-((5,7-dichloro-1H-indol-2-yl)methyl)-1,8-diazaspiro[4.5]decane-8-carbonyl)-1H-pyrazol-3-yl)acetamide] |  |  | 25 to 50% | > 75% | 1 to 10 µM | < 0.1 µM |  |
| CC1(N(CC(=O)O)Cc2ccc(C(F)(F)F)cc2N2CCCC2)CCN(C(=O)n2ccc(NS(C)(=O)=O)n2)CC1 [Example 29, N-(4-methyl-1-(3-(methylsulfonamido)-1H-pyrazole-1-carbonyl)piperidin-4-yl)-N-(2-(pyrrolidin-1-yl)-4-(trifluoromethyl)benzyl)glycine] | 0 to 25% |  | 0 to 25% | 0 to 25% |  |  | 50 to 75% |
| CS(=O)(=O)Nc1ccn(C(=O)N2CCC(Oc3ccc(C(F)(F)F)c(-c4nnco4)c3)CC2)n1 [Example 5, N-(1-(4-(3-(1,3,4-Oxadiazol-2-yl)-4-(trifluoromethyl)phenoxy)piperidine-1-carbonyl)-1H-pyrazol-3-yl)methanesulfonamide] | 0 to 25% | > 75% | 0 to 25% | > 75% |  |  |  |
| CC(=O)Nc1ccn(C(=O)N2CCN(Cc3cc(Cl)cc(Oc4ccc(Cl)cc4)c3)CC2)n1 [Example 17, N-(1-(4-(3-chloro-5-(4-chlorophenoxy)benzyl)piperazine-1-carbonyl)-1H-pyrazol-3-yl)acetamide] | > 75% | > 75% | > 75% | > 75% |  |  |  |
